Assay results as given in patent US8574563B2 (Bristol-Myers Squibb Company, priority 2006, dated 2013).
Read-outs that look alike come from different tables or passages of the source.

Test system: HCV 1b-377-neo replicon cells
Assay: HCV replicon assay, HCV 1b-377-neo replicon cells (1b FRET)
Format: cell-based, Hepatitis C virus genotype 1b
Conditions: HCV 1b-377-neo replicon cells, HCV 1b genotype, read-out: EC50 range against HCV 1b (Table 2, Range)
Outline: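 Compounds tested in HCV genotype 1b-377-neo replicon cells with a FRET read-out. Cells resistant to a reference NS5A inhibitor through a Y2065H NS5A mutation were run alongside wild-type cells.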

Compound | EC50 (Hepatitis C virus) [nM] | EC50 [nM]
CCN(CC)[C@@H](C(=O)N1CCC[C@H]1c1ncc(-c2ccc(-c3ccc(-c4cnc([C@@H]5CCCN5C(=O)[C@@H](C)O)[nH]4)cc3)cc2)[nH]1)c1ccccc1 [Example M39, (2R)-1-((2S)-2-(5-(4′-(2-((2S)-1-((2R)-2-(diethylamino)-2-phenylacetyl)-2-pyrrolidinyl)-1H-imidazol-5-yl)-4-biphenylyl)-1H-imidazol-2-yl)-1-pyrrolidinyl)-1-oxo-2-propanol] | 1 to 99 | 
COC(=O)N[C@@H](C(=O)N1CCC[C@H]1c1ncc(-c2ccc(-c3ccc(-c4cnc([C@@H]5CCCN5C(=O)N5CCOCC5)[nH]4)cn3)cc2)[nH]1)c1ccccc1 [Example 144, methyl ((1R)-2-((2S)-2-(5-(4-(5-(2-((2S)-1-(4-morpholinylcarbonyl)-2-pyrrolidinyl)-1H-imidazol-5-yl)-2-pyridinyl)phenyl)-1H-imidazol-2-yl)-1-pyrrolidinyl)-2-oxo-1-phenylethyl)carbamate] | 0.001 to 0.999 | 
COC(=O)N[C@@H](C(=O)N1CCC[C@H]1c1ncc(-c2ccc(-c3ccc(-c4cnc([C@@H]5CCCN5C(=O)C(c5ccccc5Cl)N(C)C)[nH]4)cc3)cc2)[nH]1)c1ccccc1 (stereo partly drawn) [Example 84-56, methyl ((1R)-2-((2S)-2-(5-(4′-(2-((2S)-1-((2-chlorophenyl)(dimethylamino)acetyl)-2-pyrrolidinyl)-1H-imidazol-5-yl)-4-biphenylyl)-1H-imidazol-2-yl)-1-pyrrolidinyl)-2-oxo-1-phenylethyl)carbamate] | 0.001 to 0.999 | 
COC(=O)N[C@@H](Cc1c[nH]cn1)C(=O)N1CCC[C@H]1c1ncc(-c2ccc(-c3ccc(-c4cnc([C@@H]5CCCN5C(=O)[C@H](Cc5c[nH]cn5)NC(=O)OC)[nH]4)cc3)cc2)[nH]1 [cj-131, methyl ((1S)-2-((2S)-2-(5-(4′-(2-((2S)-1-((2S)-3-(1H-imidazol-4-yl)-2-((methoxycarbonyl)amino)propanoyl)-2-pyrrolidinyl)-1H-imidazol-5-yl)-4-biphenylyl)-1H-imidazol-2-yl)-1-pyrrolidinyl)-1-(1H-imidazol-4-ylmethyl)-2-oxoethyl)carbamate] | 1 to 99 | 
COC(=O)N[C@@H](C(=O)N1CCC[C@H]1c1ncc(-c2ccc(-c3ccc(-c4cnc([C@@H]5CCCN5C(=O)Cc5cccc(O)c5)[nH]4)cc3)cc2)[nH]1)c1ccccc1 [Example 84-14, methyl ((1R)-2-((2S)-2-(5-(4′-(2-((2S)-1-((3-hydroxyphenyl)acetyl)-2-pyrrolidinyl)-1H-imidazol-5-yl)-4-biphenylyl)-1H-imidazol-2-yl)-1-pyrrolidinyl)-2-oxo-1-phenylethyl)carbamate] | 1 to 99 | 
CC(C)C(C(=O)N1CCC[C@H]1c1ncc(-c2ccc(-c3ccc(-c4cnc([C@@H]5CCCN5C(=O)C(C(C)C)N(C)Cc5ccccc5)[nH]4)cc3)cc2)[nH]1)N(C)Cc1ccccc1 (stereo partly drawn) [Example 24-4g, 1,1′-(4,4′-biphenyldiylbis(1H-imidazole-5,2-diyl(2S)-2,1-pyrrolidinediyl))bis(N-benzyl-N,3-dimethyl-1-oxo-2-butanamine)] | 1000 to 10000 | 
COC(=O)NC(C(=O)N1CCCC1c1ncc(-c2ccc(-c3ccc(-c4cnc(C5CCCN5C(=O)C(c5csc6ccccc56)N(C)C)[nH]4)cc3)cc2)[nH]1)c1ccccc1 [Example 84-50, methyl ((1R)-2-((2S)-2-(5-(4′-(2-((2S)-1-(1-benzothiophen-3-yl(dimethylamino)acetyl)-2-pyrrolidinyl)-1H-imidazol-5-yl)-4-biphenylyl)-1H-imidazol-2-yl)-1-pyrrolidinyl)-2-oxo-1-phenylethyl)carbamate] |  | 0.001 to 0.999
CCNC(=O)N1CCC[C@H]1c1ncc(-c2ccc(-c3ccc(-c4cnc([C@@H]5CCCN5C(=O)[C@H](NC(=O)OC)c5ccccc5)[nH]4)cc3)cc2)[nH]1 [Example 108, methyl ((1R)-2-((2S)-2-(5-(4′-(2-((2S)-1-(ethylcarbamoyl)-2-pyrrolidinyl)-1H-imidazol-5-yl)-4-biphenylyl)-1H-imidazol-2-yl)-1-pyrrolidinyl)-2-oxo-1-phenylethyl)carbamate] | 0.001 to 0.999 | 
COC(=O)N[C@@H](C(=O)N1CCC[C@H]1c1ncc(-c2ccc(-c3ccc(-c4cnc([C@@H]5CCCN5C(=O)Cc5ccccn5)[nH]4)cc3)cc2)[nH]1)c1ccccc1 [Example 46, methyl ((1R)-2-oxo-1-phenyl-2-((2S)-2-(5-(4′-(2-((2S)-1-(2-pyridinylacetyl)-2-pyrrolidinyl)-1H-imidazol-5-yl)-4-biphenylyl)-1H-imidazol-2-yl)-1-pyrrolidinyl)ethyl)carbamate] |  | 0.001 to 0.999
COC(=O)N[C@@H](C)C(=O)N1C[C@@H](O)C[C@H]1c1ncc(-c2ccc(-c3ccc(-c4cnc([C@@H]5C[C@H](O)CN5C(=O)[C@H](C)NC(=O)OC)[nH]4)cc3)cc2)[nH]1 [JG-8, methyl ((1S)-2-((2S,4S)-4-hydroxy-2-(5-(4′-(2-((2S,4S)-4-hydroxy-1-(N-(methoxycarbonyl)-L-alanyl)-2-pyrrolidinyl)-1H-imidazol-5-yl)-4-biphenylyl)-1H-imidazol-2-yl)-1-pyrrolidinyl)-1-methyl-2-oxoethyl)carbamate] | 0.001 to 0.999 | 
COC(=O)N[C@H](C(=O)N1CCC[C@H]1c1ncc(-c2ccc(-c3ccc(-c4cnc([C@@H]5CCCN5C(=O)[C@H](NC5=NCCN5)C(C)C)[nH]4)cc3)cc2)[nH]1)C(C)C [cj-11n, methyl ((1S)-1-(((2S)-2-(5-(4′-(2-((2S)-1-(N-(4,5-dihydro-1H-imidazol-2-yl)-D-valyl)-2-pyrrolidinyl)-1H-imidazol-5-yl)-4-biphenylyl)-1H-imidazol-2-yl)-1-pyrrolidinyl)carbonyl)-2-methylpropyl)carbamate] | 1 to 99 | 
O=C([C@H](O)c1ccccc1)N1C[C@@H](O)C[C@H]1c1ncc(-c2ccc(-c3ccc(-c4cnc([C@@H]5C[C@H](O)CN5C(=O)[C@H](O)c5ccccc5)[nH]4)cc3)cc2)[nH]1 [Example 24-18, (3S,5S,3′S,5′S)-5,5′-(4,4′-biphenyldiylbis(1H-imidazole-5,2-diyl))bis(1-((2R)-2-hydroxy-2-phenylacetyl)-3-pyrrolidinol)] | 0.001 to 0.999 | 
COC(=O)N[C@@H](C(=O)N1CCC[C@H]1c1ncc(-c2ccc(-c3ccc(-c4cnc([C@@H]5CCCN5C(=O)[C@@H](c5ccccc5)N(C)C)[nH]4)cc3)cc2)[nH]1)c1ccccc1 [Example 42, methyl ((1R)-2-((2S)-2-(5-(4′-(2-((2S)-1-((2R)-2-(dimethylamino)-2-phenylacetyl)-2-pyrrolidinyl)-1H-imidazol-5-yl)-4-biphenylyl)-1H-imidazol-2-yl)-1-pyrrolidinyl)-2-oxo-1-phenylethyl)carbamate] | 0.001 to 0.999 | 
COC(=O)N[C@@H](C(=O)N1CCC[C@H]1c1ncc(-c2ccc(-c3ccc(-c4cnc([C@@H]5CCCN5C(=O)C5(O)CC5)[nH]4)cc3)cc2)[nH]1)c1ccccc1 [Example 60, methyl ((1R)-2-((2S)-2-(5-(4′-(2-((2S)-1-((1-hydroxycyclopropyl)carbonyl)-2-pyrrolidinyl)-1H-imidazol-5-yl)-4-biphenylyl)-1H-imidazol-2-yl)-1-pyrrolidinyl)-2-oxo-1-phenylethyl)carbamate] | 0.001 to 0.999 | 
CCN(C)[C@@H](C(=O)N1CCC[C@H]1c1ncc(-c2ccc(-c3ccc(-c4cnc([C@@H]5CCCN5C(=O)[C@@H](c5ccccc5)N(C)CC)[nH]4)cc3)cc2)[nH]1)c1ccccc1 [Example 22, (1R,1′R)-2,2′-(4,4′-biphenyldiylbis(1H-imidazole-5,2-diyl(2S)-2,1-pyrrolidinediyl))bis(N-ethyl-N-methyl-2-oxo-1-phenylethanamine)] | 0.001 to 0.999 | 
COC(=O)N[C@@H](Cc1cn(Cc2ccccc2)cn1)C(=O)N1CCC[C@H]1c1ncc(-c2ccc(-c3ccc(-c4cnc([C@@H]5CCCN5C(=O)[C@@H](NC(=O)OC)C(C)C)[nH]4)cc3)cc2)[nH]1 [cj-76, methyl ((1S)-1-(((2S)-2-(5-(4′-(2-((2S)-1-((2S)-3-(1-benzyl-1H-imidazol-4-yl)-2-((methoxycarbonyl)amino)propanoyl)-2-pyrrolidinyl)-1H-imidazol-5-yl)-4-biphenylyl)-1H-imidazol-2-yl)-1-pyrrolidinyl)carbonyl)-2-methylpropyl)carbamate] | 0.001 to 0.999 | 
COC(=O)N[C@H](C(=O)N1CCC[C@H]1c1ncc(-c2ccc(-c3ccc(-c4cnc([C@@H]5CCCN5C(=O)[C@H](NC5=NCCN5C)C(C)C)[nH]4)cc3)cc2)[nH]1)C(C)C [cj-11m, methyl ((1S)-2-methyl-1-(((2S)-2-(5-(4′-(2-((2S)-1-(N-(1-methyl-4,5-dihydro-1H-imidazol-2-yl)-D-valyl)-2-pyrrolidinyl)-1H-imidazol-5-yl)-4-biphenylyl)-1H-imidazol-2-yl)-1-pyrrolidinyl)carbonyl)propyl)carbamate] | 1 to 99 | 
CC(C)C[C@H](O)C(=O)N1CCC[C@H]1c1ncc(-c2ccc(-c3ccc(-c4cnc([C@@H]5CCCN5C(=O)[C@@H](O)CC(C)C)[nH]4)cc3)cc2)[nH]1 [LS3, (2S,2′S)-1,1′-(4,4′-biphenyldiylbis(1H-imidazole-5,2-diyl(2S)-2,1-pyrrolidinediyl))bis(4-methyl-1-oxo-2-pentanol)] | 1 to 99 | 
COC(=O)N[C@@H](C(=O)N1CCC[C@H]1c1ncc(-c2ccc(-c3ccc(-c4cnc([C@@H]5CCCN5C(=O)[C@@H]5CCCO5)[nH]4)cc3)cc2)[nH]1)c1ccccc1 [Example 59, methyl ((1R)-2-oxo-1-phenyl-2-((2S)-2-(5-(4′-(2-((2S)-1-((2S)-tetrahydro-2-furanylcarbonyl)-2-pyrrolidinyl)-1H-imidazol-5-yl)-4-biphenylyl)-1H-imidazol-2-yl)-1-pyrrolidinyl)ethyl)carbamate] | 0.001 to 0.999 | 
COC(=O)N[C@@H](Cc1ccc(OCc2ccccc2)cc1)C(=O)N1CCC[C@H]1c1ncc(-c2ccc(-c3ccc(-c4cnc([C@@H]5CCCN5C(=O)[C@@H](NC(=O)OC)C(C)C)[nH]4)cc3)cc2)[nH]1 [cj-104, methyl ((1S)-1-(((2S)-2-(5-(4′-(2-((2S)-1-(O-benzyl-N-(methoxycarbonyl)-L-tyrosyl)-2-pyrrolidinyl)-1H-imidazol-5-yl)-4-biphenylyl)-1H-imidazol-2-yl)-1-pyrrolidinyl)carbonyl)-2-methylpropyl)carbamate] | 0.001 to 0.999 | 
